Measured values published in patent publication US20090158447A1, “TLR ligand and IL-1 Response-Injured Animal Model” (priority 2004, published 2009).

Tests used:
Assay type in all cases: cell-based, mouse
[1] = tested on: peritoneal macrophages or lung-derived normal cells; experiment: Northern blot analysis of IκB-ζ, Bcl-3 and IκB-α expression on TLR/IL-1R stimulation; details: stimulation for 2 hours, FIG. 1a
Description: Peritoneal macrophages and lung primary cells were stimulated with 100 ng ml^−1 BLP, 10 μg ml^−1 PGN, 30 ng ml^−1 MALP-2, 100 nM R-848, 3 μM CpG DNA, 10 ng ml^−1 IL-1β, 10 μg ml^−1 LPS, 100 ng ml^−1 flagellin, and 10 ng ml^−1 TNF-α for 2 hours. Total RNA (10 μg) was extracted and subjected to Northern blot analysis for investigating the expression of IκB-ζ, Bcl-3, IκB-α, and β-actin. b. MEFs from wild-type and MyD88-deficient mice were stimulated with 10 ng ml^−1 IL-1β and 10 μg ml^−1 LPS for the indicated periods. Total RNA (10 μg) was extracted and subjected to Northern blot analysis for investigating the expression of IκB-ζ, Cox-2, IP-10, and β-actin.
Whether IκB-ζ would be induced in response to other TLR ligands was examined based on the fact that stimulation with IL-1 or LPS induces IκB-ζ in macrophage cell lines and fibroblasts, and that IL-1R and the receptor for LPS, TLR4, share the intracellular signaling pathways. […] On the other hand, other IκB family members, IκB-α and Bcl-3, were induced in response to TNF-αas well as a TLR ligand and IL-1. Taken together, unlike IκB-α and Bcl-3, the IκB-ζ induction is specifically detected on the TLR/IL-1R stimulation.

peritoneal macrophages = experiment: Time-course Northern blot analysis of IκB-ζ induction following LPS stimulation; details: wild-type peritoneal macrophages, 10 ng ml^−1 LPS, FIG. 3h
Description: It is a figure showing immune responses in IκB-ζ-deficient cells, and kinetics of IκB-ζ induction. a, b, c, d. Peritoneal macrophages from wild-type and IκB-ζ-deficient mice were cultured with the indicated concentrations of PGN, R-848, CpG DNA in the coexistence of 10 ng ml^−1 LPS, 100 ng ml^−1 BLP, and 30 ng ml^−1 MALP-2, and in the presence of 30 ng ml^−1 IFN-γ for 24 h. Concentrations of IL-6, TNF-α, and NO in the culture supernatants were measured. The indicated values are means±SD of triplicates. “N.D.” means not detected. e. MEFs from wild-type and IκB-ζ-deficient mice were stimulated with 10 ng ml^−1 IL-1 and 10 ng ml^−1 TNF-α. Supernatents were collected for IL-6 analysis by ELISA 24 h later. Indicated values are means±SD of triplicates. “N.D.” means not detected. f. Peritoneal macrophages were stimulated with 10 ng ml^−1 LPS for the indicated periods. Total RNA (5 μg) was extracted and subjected to Northern blot analysis for investigating the expression of IL-6, TNF-α, and β-actin. g. […] Concentrations of IL-6 in the culture supernatants, with or without 10 ng ml^−1 IL-β, were measured by ELISA. […] Two-independent experiments with independently derived wild-type cells were quantitated by Phospholmager and mRNA amount was graphed for the indicated genes in arbitrary units (left for IκB-ζ and IL-6, right for TNF-α) relative to β-actin. […]

RAW 264.7 cells = experiment: Luciferase reporter assay of IL-6 and ELAM1 promoters; details: RAW 264.7 cells transfected with luciferase reporter plasmids, FIG. 4a
From the text: It is a figure showing the result of an in vitro analysis of IκB-ζ on the IL-6 promoter. a. RAW 264.7 cells were transiently transfected with luciferase reporter constructs of either mouse IL-6 promoter or ELAM1 promoter together with either a control or the IκB-ζ expression plasmid. Luciferase activities were expressed as fold-increase over the background shown by lysates prepared from untransfected cells. Data are representative of three separate experiments. In all three experiments, cells were stimulated with the indicated concentrations of LPS. b. A certain amount of IκB-ζ expression vector was transiently introduced into untreated RAW 264.7 cells with the indicated amount of IL-6 reporter plasmid. Data are representative of three independent experiments. c. […] Precipitated DNA for the IL-6 κB site (left), 3′ region of IL-6 gene (center), or ELAM1 promoter (right) was measured by PCR (ChIP). […]
Reporter plasmids were transiently co-transfected into RAW 264.7 and P19 cells with either control or the IκB-ζ expression vectors by using SUPERFECT transfection reagent (QIAGEN). Luciferase activities of total cell lysates were measured using dual-luciferase reporter assay system (Promega, Maiden, Wis.) according to the method described previously (28, 29) (Nat Immunol. 3, 392-398 (2002); Nat Immunol. 2, 835-841 (2001)).

lipopolysaccharide [LPS]
IκB-ζ mRNA induction [1]: strongly induced | time after stimulation at which IκB-ζ induction reached its maximum level (peritoneal macrophages): 120 min | time after stimulation at which IκB-ζ induction was observed (peritoneal macrophages): 30 min | activation of both IL-6 and ELAM1 promoters (RAW 264.7 cells): dose-dependent manner
